For series [1], the system named is Piglets. To be noted: compared with L-lysine hydrochloride; cited from earlier work.
The conditions of series [2]: temperature range at which the trihydrate precipitates (35° C. and below).

For the compound `NCCCC[C@H](N)C(=O)O.NCCCC[C@H](N)C(=O)O.O=S(=O)(O)O` [diL-lysine sulfate], the feed effects result in series [1] is “equivalent to those of L-lysine hydrochloride”.
For the compound `NCCCC[C@H](N)C(=O)O.NCCCC[C@H](N)C(=O)O.O.O.O.O=S(=O)(O)O` [diL-lysine monosulfate trihydrate], the “degree of solubility in water versus the solubility curve of anhydrous diL-lysine sulfate (FIG. 4)” value in series [2] is listed as “lower than the degree of solubility that would be anticipated from the solubility curve of anhydrous diL-lysine sulfate”.

The values are drawn from patent publication US7161029B2, “DiL-lysine monosulfate trihydrate crystal and method of making” (Ajinomoto Co., Inc., priority 2003, dated 2007).
